In patent publication US11230538B2, “Herbicides” (SYNGENTA PARTICIPATIONS AG, priority 2016, dated 2022):

How the values were obtained:
Type in all cases: in vivo
[1] = test system: Triticum aestivium (TRZAW); test: B2 Post-emergence herbicidal activity; design: key: 5=total damage to plant; 0=no damage to plant; settings: post-emergence application, rate 1000 g/ha, evaluated after 13 days
How it was run: (§1)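 Test seeds are sown in standard soil and raised for 8 days under controlled glasshouse conditions (24/16 °C, 14 h light, 65% humidity). Foliage is then sprayed with compound formulated in 50:50 acetone/water plus 0.5% Tween 20, and plants are rated 0–5 for damage after 13 days.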

[2] = test system: Alopecurus myosuroides (ALOMY); test: B2 Post-emergence herbicidal activity; design: key: 5=total damage to plant; 0=no damage to plant; settings: post-emergence application, rate 1000 g/ha, evaluated after 13 days
How it was run: as §1

[3] = test system: Setaria fabenri (SETFA); test: B2 Post-emergence herbicidal activity; design: key: 5=total damage to plant; 0=no damage to plant; settings: post-emergence application, rate 1000 g/ha, evaluated after 13 days
How it was run: as §1

[4] = test system: Avena fatua (AVEFA); test: B2 Post-emergence herbicidal activity; settings: post-emergence application, rate 1000 g/ha, evaluated after 13 days
How it was run: as §1

[5] = test system: Lolium perenne (LOLPE); test: B1 Pre-emergence herbicidal activity; design: key to Pre-emergence herbicidal activity, LOLPE (damage score 0-5): 5=total damage to plant; 0=no damage to plant; settings: pre-emergence application, rate 1000 g/ha, evaluated after 13 days
How it was run: (§2)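 Sow in soil → 1 d glasshouse (24/16 °C, 14 h light, 65% RH) → spray pre-emergence (acetone/water 50:50, 0.5% Tween 20) → grow 13 d, water twice daily → score 0–5 (5 = total damage).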

[6] = test system: Setaria fabenr (SETFA); test: B1 Pre-emergence herbicidal activity; design: key to Pre-emergence herbicidal activity, SETFA (damage score 0-5): 5=total damage to plant; 0=no damage to plant; settings: pre-emergence application, rate 1000 g/ha, evaluated after 13 days
How it was run: as §2

[7] = test system: Lolium perenne (LOLPE); test: B2 Post-emergence herbicidal activity; settings: post-emergence application, rate 1000 g/ha, evaluated after 13 days
How it was run: as §1

[8] = test system: Echinochloa crus-galli (ECHCG); test: B2 Post-emergence herbicidal activity; design: key to Post-emergence herbicidal activity, ECHCG (damage score 0-5): 5=total damage to plant; 0=no damage to plant; settings: post-emergence application, rate 1000 g/ha, evaluated after 13 days
How it was run: as §1

[9] = test system: Echinochloa crus-galli (ECHCG); test: B1 Pre-emergence herbicidal activity; design: key to Pre-emergence herbicidal activity, ECHCG (damage score 0-5): 5=total damage to plant; 0=no damage to plant; settings: pre-emergence application, rate 1000 g/ha, evaluated after 13 days
How it was run: as §2

[10] = test system: Triticum aestivium (TRZAW); test: B1 Pre-emergence herbicidal activity; design: key: 5=total damage to plant; 0=no damage to plant; settings: pre-emergence application, rate 1000 g/ha, evaluated after 13 days
How it was run: as §2

[11] = test system: Alopecurus myosuroides (ALOMY); test: B1 Pre-emergence herbicidal activity; design: key: 5=total damage to plant; 0=no damage to plant; settings: pre-emergence application, rate 1000 g/ha, evaluated after 13 days
How it was run: as §2

[12] = test system: Avena fatua (AVEFA); test: B1 Pre-emergence herbicidal activity; design: key: 5=total damage to plant; 0=no damage to plant; settings: pre-emergence application, rate 1000 g/ha, evaluated after 13 days
How it was run: as §2

CCC(=O)N(COCC(C)(C)C)c1ccc(-c2cncc(F)c2)nc1C(F)(F)F [Compound C99]
Post-emergence herbicidal activity, TRAZW (damage score 0-5) [1]: 0 | Post-emergence herbicidal activity, ALOMY (damage score 0-5) [2]: 0 | Post-emergence herbicidal activity, SETFA (damage score 0-5) [3]: 5 | Post-emergence herbicidal activity, AVEFA (damage score 0-5) [4]: 2 | Pre-emergence herbicidal activity, LOLPE (damage score 0-5) [5]: 1 | Pre-emergence herbicidal activity, SETFA (damage score 0-5) [6]: 5 | Post-emergence herbicidal activity, LOLPE (damage score 0-5) [7]: 2 | Post-emergence herbicidal activity, ECHCG (damage score 0-5) [8]: 4 | Pre-emergence herbicidal activity, ECHCG (damage score 0-5) [9]: 2 | Pre-emergence herbicidal activity, TRAZW (damage score 0-5) [10]: 0 | Pre-emergence herbicidal activity, ALOMY (damage score 0-5) [11]: 0 | Pre-emergence herbicidal activity, AVEFA (damage score 0-5) [12]: 1

O=C(c1ccccc1)N(CC1CC1)c1ccc(-c2cncc(F)c2)nc1C(F)(F)F [Compound C103]
Post-emergence herbicidal activity, TRAZW (damage score 0-5) [1]: 0 | Post-emergence herbicidal activity, ALOMY (damage score 0-5) [2]: 0 | Post-emergence herbicidal activity, SETFA (damage score 0-5) [3]: 2 | Post-emergence herbicidal activity, AVEFA (damage score 0-5) [4]: 2 | Pre-emergence herbicidal activity, LOLPE (damage score 0-5) [5]: 0 | Pre-emergence herbicidal activity, SETFA (damage score 0-5) [6]: 1 | Post-emergence herbicidal activity, LOLPE (damage score 0-5) [7]: 1 | Post-emergence herbicidal activity, ECHCG (damage score 0-5) [8]: 1 | Pre-emergence herbicidal activity, ECHCG (damage score 0-5) [9]: 0 | Pre-emergence herbicidal activity, TRAZW (damage score 0-5) [10]: 0 | Pre-emergence herbicidal activity, ALOMY (damage score 0-5) [11]: 0 | Pre-emergence herbicidal activity, AVEFA (damage score 0-5) [12]: 0

O=C(Nc1ccc(-c2cncnc2)nc1C(F)(F)F)C1CC1 [Compound C109]
Post-emergence herbicidal activity, TRAZW (damage score 0-5) [1]: 1 | Post-emergence herbicidal activity, ALOMY (damage score 0-5) [2]: 0 | Post-emergence herbicidal activity, SETFA (damage score 0-5) [3]: 5 | Post-emergence herbicidal activity, AVEFA (damage score 0-5) [4]: 3 | Pre-emergence herbicidal activity, LOLPE (damage score 0-5) [5]: 1 | Pre-emergence herbicidal activity, SETFA (damage score 0-5) [6]: 4 | Post-emergence herbicidal activity, LOLPE (damage score 0-5) [7]: 2 | Post-emergence herbicidal activity, ECHCG (damage score 0-5) [8]: 5 | Pre-emergence herbicidal activity, ECHCG (damage score 0-5) [9]: 4 | Pre-emergence herbicidal activity, TRAZW (damage score 0-5) [10]: 0 | Pre-emergence herbicidal activity, ALOMY (damage score 0-5) [11]: 0 | Pre-emergence herbicidal activity, AVEFA (damage score 0-5) [12]: 2

O=C1CCC(=O)N1c1ccc(-c2cncnc2)nc1C(F)(F)F [Compound C110]
Post-emergence herbicidal activity, TRAZW (damage score 0-5) [1]: 1 | Post-emergence herbicidal activity, ALOMY (damage score 0-5) [2]: 0 | Post-emergence herbicidal activity, SETFA (damage score 0-5) [3]: 5 | Post-emergence herbicidal activity, AVEFA (damage score 0-5) [4]: 3 | Pre-emergence herbicidal activity, LOLPE (damage score 0-5) [5]: 1 | Pre-emergence herbicidal activity, SETFA (damage score 0-5) [6]: 4 | Post-emergence herbicidal activity, LOLPE (damage score 0-5) [7]: 2 | Post-emergence herbicidal activity, ECHCG (damage score 0-5) [8]: 5 | Pre-emergence herbicidal activity, ECHCG (damage score 0-5) [9]: 4 | Pre-emergence herbicidal activity, TRAZW (damage score 0-5) [10]: 0 | Pre-emergence herbicidal activity, ALOMY (damage score 0-5) [11]: 0 | Pre-emergence herbicidal activity, AVEFA (damage score 0-5) [12]: 3

O=C(Nc1ccc(-c2cncc(F)c2)nc1C(F)(F)F)C1CCCC1 [Compound C111]
Post-emergence herbicidal activity, TRAZW (damage score 0-5) [1]: 0 | Post-emergence herbicidal activity, ALOMY (damage score 0-5) [2]: 1 | Post-emergence herbicidal activity, SETFA (damage score 0-5) [3]: 5 | Post-emergence herbicidal activity, AVEFA (damage score 0-5) [4]: 4 | Pre-emergence herbicidal activity, LOLPE (damage score 0-5) [5]: 1 | Pre-emergence herbicidal activity, SETFA (damage score 0-5) [6]: 5 | Post-emergence herbicidal activity, LOLPE (damage score 0-5) [7]: 2 | Post-emergence herbicidal activity, ECHCG (damage score 0-5) [8]: 5 | Pre-emergence herbicidal activity, ECHCG (damage score 0-5) [9]: 4 | Pre-emergence herbicidal activity, TRAZW (damage score 0-5) [10]: 0 | Pre-emergence herbicidal activity, ALOMY (damage score 0-5) [11]: 1 | Pre-emergence herbicidal activity, AVEFA (damage score 0-5) [12]: 2
